Several values for one entry are separate records, joined by “and”; a condition that tells them apart may be missing. Identical values can stand only once. Inconclusive results and toxic doses are left out. Rule as the data show it: active = T/C of 150% or more; inactive = T/C below 125%.
Tested on: L1210 leukemia ip in BDF1 mice, survival T/C
Experiment: NCI In Vivo Anticancer Drug Screen. Data for tumor model L1210 Leukemia (intraperitoneal) in B6D2F1 (BDF1) mice
Conditions: endpoint: mean survival time, higher = longer survival
Method in brief: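 Mice bearing the transplanted tumor received compound or vehicle. Survival of the treated group was divided by that of the vehicle-treated control group to give the ratio.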

[1] = dose: 100.0 mg/kg/injection, schedule: Q01DX009 (ip), vehicle: saline with Tween-80
[2] = dose: 100.0 mg/kg/injection, schedule: Q04DX003 (ip), vehicle: saline with Tween-80
[3] = dose: 200.0 mg/kg/injection, schedule: Q01DX009 (ip), vehicle: saline with Tween-80
[4] = dose: 200.0 mg/kg/injection, schedule: Q04DX003 (ip), vehicle: saline with Tween-80
[5] = dose: 400.0 mg/kg/injection, schedule: Q01DX009 (ip), vehicle: saline with Tween-80
[6] = dose: 400.0 mg/kg/injection, schedule: Q04DX003 (ip), vehicle: saline with Tween-80
[7] = dose: 100.0 mg/kg/injection, schedule: Q01DX001 (ip), vehicle: carboxymethylcellulose (CMC)
[8] = dose: 200.0 mg/kg/injection, schedule: Q01DX001 (ip), vehicle: carboxymethylcellulose (CMC)
[9] = dose: 400.0 mg/kg/injection, schedule: Q01DX001 (ip), vehicle: carboxymethylcellulose (CMC)
[10] = dose: 100.0 mg/kg/injection, schedule: Q01DX001 (ip), vehicle: saline

Measured: T/C

O=C(O)/C(Cc1cnc2ccccc2n1)=N\O
inactive: [1] 104 % of control | [2] 105 % of control | [3] 104 % of control | [4] 101 % of control | [5] 93 % of control | [6] 100 % of control

O=C(CCCc1ccc(N(CCCl)CCCl)cc1)OCc1ccccc1
inactive: dose: 100.0 mg/kg/injection, schedule: Q04DX002 (ip), vehicle: saline 121 % of control | dose: 200.0 mg/kg/injection, schedule: Q04DX002 (ip), vehicle: saline 108 % of control | dose: 400.0 mg/kg/injection, schedule: Q04DX002 (ip), vehicle: saline 121 % of control

N/C(=N/N=C/c1ccc(N(CCCl)CCCl)cc1)N[N+](=O)[O-]
inactive: dose: 15.0 mg/kg/injection, schedule: Q01DX Z (ip), vehicle: methylcellulose (MC) 89 % of control | dose: 30.0 mg/kg/injection, schedule: Q01DX Z (ip), vehicle: methylcellulose (MC) 93 % of control | dose: 60.0 mg/kg/injection, schedule: Q01DX Z (ip), vehicle: methylcellulose (MC) 96 % of control | dose: 60.0 mg/kg/injection, schedule: Q01DX Z (oral), vehicle: methylcellulose (MC) 94 % of control | dose: 120.0 mg/kg/injection, schedule: Q01DX Z (ip), vehicle: methylcellulose (MC) 96 % of control | dose: 120.0 mg/kg/injection, schedule: Q01DX Z (oral), vehicle: methylcellulose (MC) 101 % of control | dose: 240.0 mg/kg/injection, schedule: Q01DX Z (ip), vehicle: methylcellulose (MC) 104 % of control | dose: 480.0 mg/kg/injection, schedule: Q01DX Z (ip), vehicle: methylcellulose (MC) 94 % of control

CC(/C=N/NC(=O)c1cnccn1)=N/NC(=O)c1cnccn1
inactive: dose: 50.0 mg/kg/injection, schedule: Q01DX001 (ip), vehicle: water 108 % of control | dose: 100.0 mg/kg/injection, schedule: Q01DX001 (ip), vehicle: water 108 % of control | dose: 200.0 mg/kg/injection, schedule: Q01DX001 (ip), vehicle: water 103 % of control | dose: 400.0 mg/kg/injection, schedule: Q01DX001 (ip), vehicle: water 110 % of control

Nc1nnnc2nc[nH]c12
inactive: dose: 12.5 mg/kg/injection, schedule: Q01DX Z (ip), vehicle: carboxymethylcellulose (CMC) 100 % of control | dose: 25.0 mg/kg/injection, schedule: Q01DX Z (ip), vehicle: carboxymethylcellulose (CMC) 93 % of control

CCC(CC)NNC(CC)CC
inactive: dose: 75.0 mg/kg/injection, schedule: Q01DX001 (ip), vehicle: other 105 % of control | dose: 75.0 mg/kg/injection, schedule: Q01DX001 (ip), vehicle: saline 98 % of control | dose: 150.0 mg/kg/injection, schedule: Q01DX001 (ip), vehicle: other 98 % of control | dose: 150.0 mg/kg/injection, schedule: Q01DX001 (ip), vehicle: saline 96 % of control | dose: 300.0 mg/kg/injection, schedule: Q01DX001 (ip), vehicle: other 118 % of control

Cc1ccc(N2C(=O)CCC2=O)c(C)c1
inactive: dose: 50.0 mg/kg/injection, schedule: Q01DX001 (ip), vehicle: carboxymethylcellulose (CMC) 104 % of control | [7] 98 % of control | [8] 102 % of control | [9] 98 % of control

CCCCCCCCn1nnnc1-c1nnn(C)n1
inactive: dose: 100.0 mg/kg/injection, schedule: Q01DX009 (ip), vehicle: Klucel (hydroxypropylcellulose) (HPC) 106 % of control | dose: 200.0 mg/kg/injection, schedule: Q01DX009 (ip), vehicle: Klucel (hydroxypropylcellulose) (HPC) 104 % of control | dose: 400.0 mg/kg/injection, schedule: Q01DX009 (ip), vehicle: Klucel (hydroxypropylcellulose) (HPC) 101 % of control

CC12c3ccccc3C(C)(c3c1ccc1ccccc31)C1C(=O)OC(=O)C12 (stereo not given)
inactive: dose: 25.6 mg/kg/injection, schedule: Q04DX002 (ip), vehicle: Klucel (hydroxypropylcellulose) (HPC) 88 % of control | dose: 64.0 mg/kg/injection, schedule: Q04DX002 (ip), vehicle: Klucel (hydroxypropylcellulose) (HPC) 92 % of control | dose: 160.0 mg/kg/injection, schedule: Q04DX002 (ip), vehicle: Klucel (hydroxypropylcellulose) (HPC) 88 % of control | dose: 400.0 mg/kg/injection, schedule: Q04DX002 (ip), vehicle: Klucel (hydroxypropylcellulose) (HPC) 98 % of control

OCC(O)COc1ccc(Cl)cc1Cl (stereo not given)
inactive: [1] 105 % of control | [3] 101 % of control

OCC1COCOC1
inactive: dose: 50.0 mg/kg/injection, schedule: Q01DX009 (ip), vehicle: saline 104 % of control | dose: 100.0 mg/kg/injection, schedule: Q01DX009 (ip), vehicle: saline 106 % of control | dose: 100.0 mg/kg/injection, schedule: Q04DX003 (ip), vehicle: acetone 100 % of control | dose: 200.0 mg/kg/injection, schedule: Q01DX009 (ip), vehicle: saline 106 % of control | dose: 200.0 mg/kg/injection, schedule: Q04DX003 (ip), vehicle: acetone 105 % of control | dose: 400.0 mg/kg/injection, schedule: Q04DX003 (ip), vehicle: acetone 105 % of control

COc1ccc2c(c1)c(CC(=O)O)c(Br)n2Cc1ccccc1
inactive: dose: 100.0 mg/kg/injection, schedule: Q01DX001 (ip), vehicle: Klucel (hydroxypropylcellulose) (HPC) 112 % of control | dose: 100.0 mg/kg/injection, schedule: Q04DX003 (ip), vehicle: Klucel (hydroxypropylcellulose) (HPC) 98 % of control | dose: 200.0 mg/kg/injection, schedule: Q01DX001 (ip), vehicle: Klucel (hydroxypropylcellulose) (HPC) 112 % of control | dose: 200.0 mg/kg/injection, schedule: Q04DX003 (ip), vehicle: Klucel (hydroxypropylcellulose) (HPC) 100 % of control | dose: 400.0 mg/kg/injection, schedule: Q01DX001 (ip), vehicle: Klucel (hydroxypropylcellulose) (HPC) 101 % of control | dose: 400.0 mg/kg/injection, schedule: Q04DX003 (ip), vehicle: Klucel (hydroxypropylcellulose) (HPC) 102 % of control

CCCCCCc1cc(N=Nc2ccc(S(=O)(=O)Nc3cc(C)nc(C)n3)cc2)c(O)cc1O
inactive: [7] 101 % of control | [8] 95 % of control | [9] 95 % of control

COc1cc(OC(C)=O)c2ncccc2c1OC(C)=O
inactive: [10] 94 % of control

C/C(Cc1ccccc1)=N\[N+](C)(C)C
inactive: dose: 75.0 mg/kg/injection, schedule: Q01DX009 (ip), vehicle: saline 107 % of control | dose: 100.0 mg/kg/injection, schedule: Q04DX003 (ip), vehicle: saline 104 % of control | dose: 150.0 mg/kg/injection, schedule: Q01DX009 (ip), vehicle: saline 100 % of control | dose: 200.0 mg/kg/injection, schedule: Q04DX003 (ip), vehicle: saline 86 % of control

O=[N+]([O-])c1ccc2c(c1)c(-c1cccc(-c3ccccc3)c1)nc1ccccc12
inactive: [2] 95 % of control | [4] 88 % of control

CCCOC(c1ccc2c(c1)OCO2)C(C)Br (stereo not given)
inactive: [2] 97 % of control | [4] 94 % of control | [6] 94 % of control

Clc1ccc(/C(=C(\Br)c2ccccc2)c2ccccc2)cc1
inactive: [1] 96 % of control and 98 % of control | [3] 95 % of control and 101 % of control | [5] 96 % of control and 102 % of control

N#CCc1ccccc1NC(=O)CCl
inactive: dose: 100.0 mg/kg/injection, schedule: Q01DX001 (ip), vehicle: saline with Tween-80 100 % of control | dose: 200.0 mg/kg/injection, schedule: Q01DX001 (ip), vehicle: saline with Tween-80 106 % of control | dose: 400.0 mg/kg/injection, schedule: Q01DX001 (ip), vehicle: saline with Tween-80 108 % of control

C1CCC(C2CCC(C3CCCCC3)CC2)CC1 (stereo not given)
inactive: [10] 90 % of control | dose: 200.0 mg/kg/injection, schedule: Q01DX001 (ip), vehicle: saline 90 % of control

COc1cc(NC(=O)Nc2ccc(Cl)c(C(F)(F)F)c2)ccc1NC(C)=O
inactive: dose: 50.0 mg/kg/injection, schedule: Q01DX009 (ip), vehicle: carboxymethylcellulose (CMC) 96 % of control and 103 % of control | [7] 103 % of control and 105 % of control | dose: 100.0 mg/kg/injection, schedule: Q04DX002 (ip), vehicle: carboxymethylcellulose (CMC) 94 % of control | dose: 100.0 mg/kg/injection, schedule: Q04DX003 (ip), vehicle: carboxymethylcellulose (CMC) 101 % of control and 105 % of control | [8] 100 % of control and 102 % of control | dose: 200.0 mg/kg/injection, schedule: Q04DX002 (ip), vehicle: carboxymethylcellulose (CMC) 96 % of control and 90 % of control | dose: 200.0 mg/kg/injection, schedule: Q04DX003 (ip), vehicle: carboxymethylcellulose (CMC) 92 % of control and 99 % of control | [9] 97 % of control and 105 % of control | dose: 400.0 mg/kg/injection, schedule: Q04DX002 (ip), vehicle: carboxymethylcellulose (CMC) 96 % of control and 90 % of control | dose: 400.0 mg/kg/injection, schedule: Q04DX003 (ip), vehicle: carboxymethylcellulose (CMC) 92 % of control

CC1=CC=CC(=O)C1(C)C(Cl)Cl (stereo not given)
inactive: [1] 91 % of control | [2] 97 % of control | [3] 104 % of control | [4] 108 % of control | [5] 109 % of control | [6] 94 % of control
